In ChEMBL document CHEMBL1154289, “Structure based design of novel irreversible FAAH inhibitors” (Bioorg Med Chem Lett, 2009):
Activity calls are given as the source filed them. The calls are words filed in the database; no cut-off is given here.

Experiments:
[1] = biological target: T1, Fatty-acid amide hydrolase 1 (Rattus norvegicus) (UniProt P97612); test: Inhibition of rat FAAH assessed as ratio of Kinact to Ki
T1 sequence (whole entry): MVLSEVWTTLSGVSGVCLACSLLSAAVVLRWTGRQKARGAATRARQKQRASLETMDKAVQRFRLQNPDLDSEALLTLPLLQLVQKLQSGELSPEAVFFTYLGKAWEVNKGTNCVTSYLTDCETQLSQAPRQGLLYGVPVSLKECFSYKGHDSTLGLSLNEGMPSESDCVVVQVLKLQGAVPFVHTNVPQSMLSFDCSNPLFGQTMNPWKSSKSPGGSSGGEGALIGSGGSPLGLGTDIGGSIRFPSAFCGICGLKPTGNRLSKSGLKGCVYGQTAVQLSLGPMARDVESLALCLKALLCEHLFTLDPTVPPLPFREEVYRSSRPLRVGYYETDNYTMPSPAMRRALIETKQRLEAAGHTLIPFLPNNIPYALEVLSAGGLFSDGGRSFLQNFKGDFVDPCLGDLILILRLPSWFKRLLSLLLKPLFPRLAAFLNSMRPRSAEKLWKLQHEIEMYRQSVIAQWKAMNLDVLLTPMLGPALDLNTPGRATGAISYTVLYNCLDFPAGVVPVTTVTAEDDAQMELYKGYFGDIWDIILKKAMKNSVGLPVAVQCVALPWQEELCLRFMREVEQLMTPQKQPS

[2] = biological target: T2, Fatty-acid amide hydrolase 1 (Homo sapiens) (UniProt O00519); test: Inhibition of human FAAH assessed as ratio of Kinact to Ki
T2 sequence (whole entry): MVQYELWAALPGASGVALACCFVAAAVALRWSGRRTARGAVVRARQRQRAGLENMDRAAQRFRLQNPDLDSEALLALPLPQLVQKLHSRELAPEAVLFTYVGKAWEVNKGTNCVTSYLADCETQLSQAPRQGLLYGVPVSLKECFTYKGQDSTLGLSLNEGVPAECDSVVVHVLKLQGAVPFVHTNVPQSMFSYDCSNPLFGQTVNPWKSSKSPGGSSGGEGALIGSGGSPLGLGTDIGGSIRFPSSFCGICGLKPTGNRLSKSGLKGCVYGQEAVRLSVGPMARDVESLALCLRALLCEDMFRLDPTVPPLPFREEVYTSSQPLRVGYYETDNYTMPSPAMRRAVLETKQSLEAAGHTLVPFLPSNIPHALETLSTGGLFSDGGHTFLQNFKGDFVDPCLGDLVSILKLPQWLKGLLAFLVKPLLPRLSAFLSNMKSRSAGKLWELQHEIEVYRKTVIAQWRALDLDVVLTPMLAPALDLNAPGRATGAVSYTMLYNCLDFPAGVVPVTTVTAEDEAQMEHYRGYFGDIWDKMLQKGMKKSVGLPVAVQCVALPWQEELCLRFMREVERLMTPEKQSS

[3] = Bioavailability in rat; format: ADME, organism-based; details: in vivo

Row | Ratio [1] | Ratio [2] | bioavailability [3] | SMILES
1 | 2310 M⁻¹ s⁻¹ | 2100 M⁻¹ s⁻¹ | – | O=C(Nc1cccnc1)N1CC(C/C=C/c2cccc(Oc3ccc(C(F)(F)F)cn3)c2)C1
2 | 15300 M⁻¹ s⁻¹ | 1450 M⁻¹ s⁻¹ | – | Cc1noc(NC(=O)N2CC(CCCc3cccc(Oc4ccc(C(F)(F)F)cn4)c3)C2)c1C
3 | 688 M⁻¹ s⁻¹ | 1090 M⁻¹ s⁻¹ | – | O=C(Nc1cccnc1)N1CC(CCCc2cccc(Oc3ccc(C(F)(F)F)cn3)c2)C1
4 | 5160 M⁻¹ s⁻¹ | 881 M⁻¹ s⁻¹ | – | O=C(Nc1cncc2[nH]ccc12)N1CC(CCCc2cccc(Oc3ccc(C(F)(F)F)cn3)c2)C1
5 | 465 M⁻¹ s⁻¹ | 861 M⁻¹ s⁻¹ | – | O=C(Nc1cccnc1)N1CC(C#CCc2cccc(Oc3ccc(C(F)(F)F)cn3)c2)C1

The next lines start with the compound.

Row | SMILES | Ratio [1] | Ratio [2] | bioavailability [3]
6 | O=C(Nc1cccnc1)N1CC(=CCCc2cccc(Oc3ccc(C(F)(F)F)cn3)c2)C1 | 1310 M⁻¹ s⁻¹ | 621 M⁻¹ s⁻¹ | –
7 | O=C(Nc1cccnc1)N1CC(C/C=C\c2cccc(Oc3ccc(C(F)(F)F)cn3)c2)C1 | inactive | 782 M⁻¹ s⁻¹ | –
8 | O=C(Nc1cccnc1)N1CC(/C=C\Cc2cccc(Oc3ccc(C(F)(F)F)cn3)c2)C1 | 5390 M⁻¹ s⁻¹ | 9000 M⁻¹ s⁻¹ | 73%
9 | O=C(Nc1cccnc1)N1CC(/C=C/Cc2cccc(Oc3ccc(C(F)(F)F)cn3)c2)C1 | 2380 M⁻¹ s⁻¹ | 9340 M⁻¹ s⁻¹ | 93%
10 | O=C(Nc1cccnn1)N1CC(CCCc2cccc(Oc3ccc(C(F)(F)F)cn3)c2)C1 | 1840 M⁻¹ s⁻¹ | 3030 M⁻¹ s⁻¹ | –
